Measurements reported in patent US6806230B1, “Pyrimidine derivatives and herbicides containing them” (Kumiai Chemical Industry Co., Ltd., priority 1999, dated 2004).

Experiments:
Assay type in all cases: in vivo
barnyard grass (Ec) [1] = assay: Test Example 2: herbicidal effects by upland soil treatment; design: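 0-5 growth inhibition grade; 5 = over 90%; 4 = 70-90%; 3 = 50-70%; 2 = 30-50%; 1 = 10-30%; 0 = under 10%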; conditions: dose 100 g active ingredient per 10 ares, examined on the 21st day after treatment
In short: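 Pre-emergence test: barnyard grass and green foxtail sown in upland soil, then soil surface sprayed with wettable-powder formulation at 100 g active ingredient per 10 ares (100 l per 10 ares). Grown in greenhouse; herbicidal effect scored on a rating scale 21 days after treatment.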

barnyard grass (Ec) [2] = assay: Test Example 3: herbicidal effects by foliage treatment in upland field; design: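 0-5 growth inhibition grade; 5 = over 90%; 4 = 70-90%; 3 = 50-70%; 2 = 30-50%; 1 = 10-30%; 0 = under 10%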; conditions: dose 100 g active ingredient per 10 ares, examined on the 14th day after treatment
In short: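 Barnyard grass and green foxtail were grown in upland soil for 2 weeks in a greenhouse. A water-diluted wettable powder was sprayed over the foliage at 100 l per 10 ares, giving 100 g active ingredient per 10 ares. Herbicidal effect was scored on day 14 after treatment.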

monochoria (Mo) [3] = assay: Test Example 4: selectivity for a crop plant by flooded paddy field treatment; design: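 0-5 growth inhibition grade; 5 = over 90%; 4 = 70-90%; 3 = 50-70%; 2 = 30-50%; 1 = 10-30%; 0 = under 10%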; conditions: monochoria, dose 25 gai/10a, 21st day after treatment, index per Table 44
In short: (§1)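 Water-surface application in a greenhouse pot test: 25 g active ingredient per 10 ares, given as a diluted wettable powder one day after flooding, with visual rating of herbicidal effect three weeks post-treatment.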

rice (Or) = assay: as above; design: scale not given here; conditions: rice transplanted at second leaf stage, dose 25 gai/10a, 21st day after treatment, index per Table 44
In short: as §1

barnyard grass (Eo) [4] = assay: as above; design: scale not given here; conditions: barnyard grass, dose 25 gai/10a, 21st day after treatment, index per Table 44
In short: as §1

monochoria (Mo) [5] = assay: Test Example 1: herbicidal effects by flooded paddy field treatment; design: herbicidal effects, Mo (monochoria):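 0-5 growth inhibition grade; 5 = over 90%; 4 = 70-90%; 3 = 50-70%; 2 = 30-50%; 1 = 10-30%; 0 = under 10%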; conditions: dose 100 g active ingredient per 10 ares, examined on the 21st day after treatment, standards of Table 44
In short: (§2)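 Dose: 100 g active ingredient per 10 ares as a diluted wettable powder dripped onto 3 cm floodwater, one day after sowing in puddled paddy soil. Scored by a standard rating scale 21 days later following greenhouse growth.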

barnyard grass (Eo) [6] = assay: as above; design: herbicidal effects, Eo (barnyard grass):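 0-5 growth inhibition grade; 5 = over 90%; 4 = 70-90%; 3 = 50-70%; 2 = 30-50%; 1 = 10-30%; 0 = under 10%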; conditions: dose 100 g active ingredient per 10 ares, examined on the 21st day after treatment, standards of Table 44
In short: as §2

| SMILES | Ec (herbicidal effects, index) (barnyard grass (Ec) [1]) | Ec (herbicidal effects, index) (barnyard grass (Ec) [2]) | Mo (herbicidal effect index) (monochoria (Mo) [3]) | Or (herbicidal effect index on crop) (rice (Or)) | Eo (herbicidal effect index) (barnyard grass (Eo) [4]) | herbicidal effects, Mo (monochoria) (monochoria (Mo) [5]) | herbicidal effects, Eo (barnyard grass) (barnyard grass (Eo) [6]) |
| --- | --- | --- | --- | --- | --- | --- | --- |
| CCc1ncncc1C(C(C)C)N(C)C(=O)N(C)c1ccc(C)cc1 (racemic) [1-541] | 5 | 4 | 5 | 1 | 5 | 5 | 5 |
| C#CCN(C(=O)Cc1ccc(C)cc1)C(CCC)c1cncnc1CC (racemic) [1-609] | 5 | 4 | 5 | 1 | 5 | 5 | 5 |
| Cc1ccc(CC(=O)N(C)C(c2cncnc2C(F)(F)F)C(C)C)s1 (racemic) [2-50] | 5 | 4 | 5 | 1 | 5 | 5 | 5 |
| CCC(c1cncnc1C(C)(C)C)N(C)C(=O)Cc1ccc(Cl)cc1 (racemic) [1-572] | 5 | 4 | 5 | 1 | 5 | 5 | 5 |
| CCC(C)C(c1cncnc1C(F)(F)F)N(C)C(=O)Cc1ccc(Cl)s1 (mixture of isomers) [2-57] | 5 | 5 | 5 | 1 | 5 | 5 | 5 |
| CC(=O)c1ncncc1C(C(C)C)N(C)C(=O)Cc1ccc(Cl)cc1 (racemic) [1-528] | 5 | 4 | 5 | 1 | 5 | 5 | 5 |
| Cc1ccc(CC(=O)N(C)C(c2cncnc2C#N)C(C)C)cc1 (racemic) [1-507] | 5 | 4 | 5 | 1 | 5 | 5 | 5 |
| C=CCN(C(=O)Cc1ccc(F)cc1)C(c1cncnc1C(F)(F)F)C(C)C (racemic) [1-519] | 5 | 4 | 5 | 1 | 5 | 5 | 5 |
| CCCc1ncncc1C(CCC)N(C)C(=O)Cc1ccccc1 (racemic) [1-492] | 5 | 5 | 5 | 0 | 5 | 5 | 5 |
| COCc1ncncc1C(C(C)C)N(C)C(=O)C(C)c1ccc(Cl)cc1 (mixture of isomers) [1-591] | 5 | 4 | 5 | 1 | 5 | 5 | 5 |
| CON=Cc1ncncc1C(C(C)C)N(C)C(=O)Cc1ccccc1 (racemic) [1-496] | 5 | 4 | 5 | 1 | 5 | 5 | 5 |
| CC(=O)c1ncncc1C(C(C)C)N(C)C(=O)Cc1ccc(C)cc1 (racemic) [1-529] | 5 | 5 | 5 | 1 | 5 | 5 | 5 |
